Experiment [1] can be described thus: In-house proprietary studies of docetaxel alone, overall response rate. The note with it: first line therapy. The experiment is classed as in vivo. Here is the method:
Docetaxel alone, in several in-house proprietary studies, gave overall response rates of 40 to 43% (in second line therapy at a dose of 100 mg/m^2), 48% (in first line therapy at a dose of 75 mg/m^2) and 61% (in first line therapy at a dose of 100 mg/m^2).

Experiment [2] concerns metastatic breast cancer (MBC). The note with it: MBC progressing despite previous anthracycline containing chemotherapy; cited from earlier work.
In the next experiment the test system is advanced breast cancer. The note with it: advanced breast cancer after anthracycline failure; cited from earlier work.

As for `CC(=O)O[C@@]12CO[C@@H]1C[C@H](O)[C@@]1(C)C(=O)[C@H](O)C3=C(C)[C@@H](OC(=O)[C@H](O)[C@@H](NC(=O)OC(C)(C)C)c4ccccc4)C[C@@](O)([C@@H](OC(=O)c4ccccc4)[C@H]21)C3(C)C` [Docetaxel, docetaxel], the results for the overall response rate in experiment [1] (dose 75 mg/m^2) and in experiment [1] (dose 100 mg/m^2) were 48% and 61%, respectively. In experiment [2], the “response, median time to progression (TTP), and survival compared with MV” value was “significantly superior to MV”. For the same compound, the “response rate and TTP compared with MF” value in the experiment on advanced breast cancer was “superior to sequential methotrexate and 5-fluoruracil”.
